Experimental data taken from patent US20250296971A1, “GASTRIC INHIBITORY PEPTIDE RECEPTOR LIGANDS” (priority 2021, published 2025).
Like-named read-outs stand apart in the source and are kept apart here. *1 amine or outer side, *2 acyl side, *3 side chain or, on linkers, in order; H or OH if unused. Where a SMILES comes first, the peptide text is derived from it. Bridges are numbered along the chain shown (N, C = ends). Where no end group is shown, it is not given here. Side-chain parts run from the residue outwards. [ ]: non-standard residue; d: D form. The star is where a group is joined. X2 = O=C(O)CN1CCN(CC(=O)O)CCN(CC(=O)N[C@@H](CCC(=O)NC[C@H](O)[C@@H](O)[C@H](O)[C@H](O)CO)C(=O)*)CCN(CC(=O)O)CC1; Ttds = 1,13-diamino-4,7,10-trioxatridecan-succinamic acid, NCCCOCCOCCOCCCNC(=O)CCC(=O)*; X3 = O=C(O)CN1CCN(CC(=O)O)CCN(CC(=O)NCCCOCCOCCOCCCN*)CCN(CC(=O)O)CC1; NH(1-deoxy-D-glucityl) = OC[C@@H](O)[C@@H](O)[C@H](O)[C@@H](O)CN*; Pro(trans-4-NH2) = O=C([C@@H]1C[C@@H](N[*:3])CN1[*:1])[*:2]; DOTA = O=C(O)CN1CCN(CC(=O)O)CCN(CC(=O)*)CCN(CC(=O)O)CC1; Trp(5-Cl) = N[C@@H](Cc1c[nH]c2ccc(Cl)cc12)C(=O)O; Pyridine(2,6-diCH2) = c1cc(C[*:1])nc(C[*:2])c1; AETO = 2-aminoethane-1-thiol oxidized; mXylylene = c1cc(C[*:1])cc(C[*:2])c1; X4 = O=C(NCCN[*:2])c1cccc(C[*:1])c1; Glutaryl = O=C(CCCC(=O)[*:2])[*:1]; X1 = O=C(CN1CCC(N[*:1])CC1)[*:2]; Cysteamide = C(CS[*:3])N[*:1]; Suc = O=C(CCC(=O)[*:2])[*:1]; hLeu = CC(C)CC[C@H](N)C(=O)O; Api = NC1(C(=O)O)CCNCC1; Dap = NC[C@H](N)C(=O)O; Aib = CC(C)(N)C(=O)O

How the values were obtained:
[1] = molecular target: T1, GIPR (CHO-K1-hGIPR cells) (Homo sapiens, UniProt P48546); test: FACS binding assay; conditions: read-out: pIC50 Category (converted)
T1 construct: host or cells: CHO-K1
T1 sequence (P48546 22-466): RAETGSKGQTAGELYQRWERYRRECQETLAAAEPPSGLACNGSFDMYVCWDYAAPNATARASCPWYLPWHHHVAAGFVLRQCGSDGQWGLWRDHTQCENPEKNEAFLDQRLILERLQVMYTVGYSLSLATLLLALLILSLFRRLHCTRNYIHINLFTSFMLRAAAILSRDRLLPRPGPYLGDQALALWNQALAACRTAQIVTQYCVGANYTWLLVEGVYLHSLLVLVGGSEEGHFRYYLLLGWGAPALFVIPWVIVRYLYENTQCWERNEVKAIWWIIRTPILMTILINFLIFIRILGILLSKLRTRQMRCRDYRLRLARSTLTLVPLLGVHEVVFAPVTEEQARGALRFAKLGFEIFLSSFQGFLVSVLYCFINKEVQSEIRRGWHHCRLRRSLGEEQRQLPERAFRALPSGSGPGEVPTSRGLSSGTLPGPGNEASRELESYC
Method in brief: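 Steps: detach CHO-K1-hGIPR cells (Accutase); wash in PBS/1% FCS; adjust to 500.000 cells per mL; wash ice-cold; incubate APC-streptavidin 1 μg/mL, 30 min on ice; wash twice; acquire on flow cytometer; fit MFI-concentration data with a four-parameter logistic model.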

[2] = molecular target: T2, human GIP receptor (bioGIPR) (Homo sapiens, UniProt P48546); test: Surface plasmon resonance (SPR) based binding assay; conditions: Single Cycle Kinetic mode, 25° C.; for t1/2 Category: SPR dissociation half-life; for Kd: SPR, 1:1 Langmuir binding model, read-out: pKD Category (converted)
T2 construct: Biotinylate extracellular of the human GIP receptor (bioGIPR, Proteros biostructures GmbH, lot #02/2b); purchased Proteros biostructures GmbH lot #02/2b
T2 sequence (P48546 22-138 limits assumed): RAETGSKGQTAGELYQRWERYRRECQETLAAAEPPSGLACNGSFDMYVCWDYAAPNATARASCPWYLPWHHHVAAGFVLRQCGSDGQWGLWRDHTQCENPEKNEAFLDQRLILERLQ
Procedure: Surface plasmon resonance (SPR) studies were performed using a Biacore™ T200 SPR system. Briefly, polarized light is directed towards a gold-labeled sensor surface, and minimum intensity reflected light is detected. The angle of reflected light changes as molecules bind and dissociate.
Biotinylate extracellular of the human GIP receptor (bioGIPR, Proteros biostructures GmbH, lot #02/2b) was captured on a biotin capture chip (Biotin CAPture Kit, Series S, GE Healthcare, Cat #28-9202-34). bioGIPR was diluted in Running Buffer (HBST from Xantec Analytics; […], 0.05% Tween20, 0.1% DMSO) to a final concentration 100 nM and than flushed over the Fc-capture chip to immobilized ˜3500 RUs.
Stock solutions of test compounds were prepared by dissolving each compound in DMSO. DMSO stock solution were diluted 1:1000 in Running Buffer without DMSO. Further sequential dilutions were made with Running Buffer containing 0.1% DMSO. SPR binding analyses were performed in Single Cycle Kinetic (SCK) mode at 25° C. Flow cell without immobilized bioGIPR served as reference flowcell. After each SCK run, bioGIRP and the Biotin Capture Reagent was removed with Regeneration Solution (6 M Guanidium, 0.75 M NaOH).
In between every three SCK measurements, a blank run with Running Buffer instead of test compound was included to correct for baseline drifts (double blanking method).
For each test compound, SPR raw data in the form of resonance units (RU) were plotted as sensorgrams using the Biacore™ T200 control software. The signal from the blank sensorgram was subtracted from that of the test compound sensorgram (blank corrected). The blank corrected sensorgram was corrected for baseline drift by subtracting the sensorgram of a SCK run without the test compound (running buffer only). The association rate (kon), dissociation rate (koff), dissociation constant (KD), and t1/2 were calculated from blank corrected SPR data using the 1:1 Langmuir binding model from the Biacore™ T200 evaluation software. Raw data and fit results were imported as text files in IDBS. The pKD value (negative decadic logarithm of dissociation constant) was calculated in the IDBS excel template.

[3] = molecular target: human Gastric Inhibitory Peptide Receptor (human) (UniProt P48546); test: FACS competition with GIP-057 on CHO-K1-hGIPR cells; pIC50 category A: >8.0

Molecule: CC[C@H](C)[C@@H]1NC(=O)[C@H](CC(C)C)NC(=O)C2(CCN(C(=O)[C@H](CCC(=O)NC[C@H](O)[C@@H](O)[C@H](O)[C@H](O)CO)NC(=O)CN3CCN(CC(=O)O)CCN(CC(=O)O)CCN(CC(=O)O)CC3)CC2)NC(=O)[C@@H](NC(=O)[C@@H](CC(C)C)NC(=O)[C@H](CCC(=O)O)NC(=O)[C@@H]2C[C@@H](NC(=O)CCCC(=O)NC[C@H](O)[C@@H](O)[C@H](O)[C@H](O)CO)CN2C(=O)[C@H](Cc2c[nH]c3ccc(Cl)cc23)NC(=O)[C@H](Cc2c[nH]c3ccccc23)NC(=O)[C@H](CC(=O)O)NC(=O)CN2CCC(NC(=O)CCCC(=O)NC[C@H](O)[C@@H](O)[C@H](O)[C@H](O)CO)CC2)CSCc2cccc(n2)CSC[C@@H](C(=O)NC2CCN(CC(=O)N[C@H](CCC(=O)NC[C@H](O)[C@@H](O)[C@H](O)[C@H](O)CO)C(N)=O)CC2)NC1=O [GIP-007, AGLU-Glutar-APAc-Asp-Trp-5Clw-Tap(AGLU-Glutar)-Glu-leu-[Cys(2Lut)-Apc(DOTA-glu(AGLU))-Leu-Ile-Cys]-APAc-glu(AGLU)-NH2] ({NH(1-deoxy-D-glucityl)-Glutaryl}-[X1]DW[Trp(5-Cl)][Pro(trans-4-NH2)]([Glutaryl-NH(1-deoxy-D-glucityl)])E[dL]C[Api](X2)LIC[X1][dE](NH(1-deoxy-D-glucityl))-NH2; linker 8-12 via Pyridine(2,6-diCH2))
- IC50 ([1]; competition with 20 nM GIP-057, 4° C., 1 hour): 10 to 79.4 nM
- t1/2 Category [2]: A (t1/2 values>15 min)
- Kd [2]: < 1 nM

Molecule: CC[C@H](C)[C@@H]1NC(=O)[C@H](CC(C)C)NC(=O)C(C)(C)NC(=O)[C@@H](NC(=O)[C@@H](CC(C)C)NC(=O)[C@H](CCC(=O)O)NC(=O)[C@@H]2CCCN2C(=O)[C@H](Cc2c[nH]c3ccc(Cl)cc23)NC(=O)[C@H](Cc2c[nH]c3ccccc23)NC(=O)[C@H](CC(=O)O)NC(=O)CCC(=O)NCCCOCCOCCOCCCNC(=O)CN2CCN(CC(=O)O)CCN(CC(=O)O)CCN(CC(=O)O)CC2)CSCc2cccc(c2)C(=O)NCCNC1=O [GIP-359, DOTA-Ttds-Asp-Trp-5Clw-Pro-Glu-leu-[Cys(3CbBn)-Aib-Leu-Ile-en]] ({X3-Suc}-DW[Trp(5-Cl)]PE[dL]C[Aib]LI; linker 7-C via X4)
- IC50 ([1]; competition with 20 nM GIP-057, 4° C. for 1 hour): 10 to 79.4 nM
- t1/2 Category [2]: C (t1/2 between 5 min and 2.1 min)
- Kd [2]: 1 to 7.94 nM

Molecule: {DOTA-Ttds}-DW[Trp(5-Cl)]PE[dL][Dap][Aib]LI[AETO] (linker (positions not given here) via mXylylene; not fully specified (bridges)) [DOTA-Ttds-Asp-Trp-5Clw-Pro-Glu-leu-[Dap(3MeBn)-Aib-Leu-Ile-AETO]]
- pIC50 [3]: > 8 pic50

B1: DOTA-Ttds-Asp-Trp-5Clw-Pro-Glu-leu-[Cys(3MeBn)-Aib-Hle-Ile-AET] (peptide)
peptide: {DOTA-Ttds}-DW[Trp(5-Cl)]PE[dL]C[Aib][hLeu]I[Cysteamide]
modifications: linker (positions not given here) via mXylylene; not fully specified (bridges); printed as DOTA-Ttds-Asp-Trp-5Clw-Pro-Glu-leu-[Cys(3MeBn)-Aib-Hle-Ile-AET]
- pIC50 [3]: > 8 pic50
